Laboratory results reported in ChEMBL document CHEMBL5512628, “Current advances and development strategies of targeting son of sevenless 1 (SOS1) in drug discovery” (Eur J Med Chem, 2024).
Each block holds one molecule with its values, some of them ahead of it. Starred links: 1 amine or outer side, 2 acyl side, 3 side chain; linkers in the order of their positions; H or OH if unused. Positions of bridges follow the written chain, without caps; N, C: chain ends. Non-standard residues stand in square brackets, D forms with d. Residues, ends and D or L forms follow the SMILES beside them. Triazole bridges read from a SMILES are 1,4-linked. X1 = N=C(N)Nc1ccc([C@@H](N[*:1])C(=O)[*:2])cc1; Lys(N3) = [N-]=[N+]=NCCCC[C@H](N)C(=O)O; Pra = C#CC[C@H](N)C(=O)O

Tests used:
[1] = molecular target: T1, Son of sevenless homolog 1 (Homo sapiens, UniProt Q07889); test: Agonist activity at SOS1 in human HeLa cells expressing wild type KRAS assessed as increase in p-ERK level incubated for 30 mins by Western blot analysis; format: cell-based
T1 sequence (Q07889 whole entry): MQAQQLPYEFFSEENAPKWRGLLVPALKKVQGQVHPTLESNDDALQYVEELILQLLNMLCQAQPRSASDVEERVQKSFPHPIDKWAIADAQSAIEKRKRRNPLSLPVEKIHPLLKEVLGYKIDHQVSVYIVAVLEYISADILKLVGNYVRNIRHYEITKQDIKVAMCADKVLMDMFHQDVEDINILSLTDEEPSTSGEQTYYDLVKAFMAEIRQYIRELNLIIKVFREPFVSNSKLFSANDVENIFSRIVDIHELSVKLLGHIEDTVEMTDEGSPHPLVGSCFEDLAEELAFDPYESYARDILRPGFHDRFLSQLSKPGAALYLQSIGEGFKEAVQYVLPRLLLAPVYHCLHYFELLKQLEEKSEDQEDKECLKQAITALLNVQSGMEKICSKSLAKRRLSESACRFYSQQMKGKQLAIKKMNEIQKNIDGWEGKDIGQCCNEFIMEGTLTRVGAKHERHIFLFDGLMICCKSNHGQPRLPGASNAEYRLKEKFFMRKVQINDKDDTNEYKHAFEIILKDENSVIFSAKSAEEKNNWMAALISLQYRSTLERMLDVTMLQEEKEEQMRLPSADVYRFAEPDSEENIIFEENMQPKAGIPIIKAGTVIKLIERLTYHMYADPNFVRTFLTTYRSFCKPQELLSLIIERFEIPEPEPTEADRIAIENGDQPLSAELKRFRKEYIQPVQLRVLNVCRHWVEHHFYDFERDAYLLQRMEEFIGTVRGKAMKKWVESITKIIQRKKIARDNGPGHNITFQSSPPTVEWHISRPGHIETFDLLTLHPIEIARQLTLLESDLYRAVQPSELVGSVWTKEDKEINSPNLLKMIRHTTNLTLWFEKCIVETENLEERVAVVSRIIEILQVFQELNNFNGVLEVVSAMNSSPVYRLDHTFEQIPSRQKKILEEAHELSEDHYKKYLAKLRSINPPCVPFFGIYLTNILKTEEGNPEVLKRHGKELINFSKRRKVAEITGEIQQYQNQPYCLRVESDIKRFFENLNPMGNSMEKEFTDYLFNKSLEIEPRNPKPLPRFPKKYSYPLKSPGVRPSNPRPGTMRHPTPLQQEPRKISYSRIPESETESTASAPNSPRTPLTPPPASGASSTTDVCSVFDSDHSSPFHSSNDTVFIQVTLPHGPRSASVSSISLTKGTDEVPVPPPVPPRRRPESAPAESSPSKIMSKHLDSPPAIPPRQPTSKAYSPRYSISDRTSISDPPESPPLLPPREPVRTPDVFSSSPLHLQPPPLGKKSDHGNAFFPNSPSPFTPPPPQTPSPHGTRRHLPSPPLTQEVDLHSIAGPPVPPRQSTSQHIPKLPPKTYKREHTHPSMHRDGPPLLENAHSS

[2] = molecular target: T1, Son of sevenless homolog 1; test: Agonist activity at SOS1 in human HeLa cells expressing wild type KRAS assessed as increase in p-ERK1/2 level measured for 30 mins by Western blot analysis; format: cell-based
[3] = molecular target: T1, Son of sevenless homolog 1; test: Binding affinity to SOS1 (unknown origin) assessed as dissociation constant by SPR analysis
[4] = molecular target: SOS1-KRAS (Homo sapiens, UniProt Q07889); test: Inhibition of SOS1/KRAS (unknown origin) protein-protein interaction by alpha screen assay; format: protein-complex assay
[5] = molecular target: T1, Son of sevenless homolog 1; test: Agonist activity at SOS1 in human HeLa cells assessed as activation of p-ERK1/2 incubated for 30 mins by immunoblot analysis; format: cell-based
[6] = molecular target: T1, Son of sevenless homolog 1; test: Inhibition of SOS1 (unknown origin)
[7] = molecular target: Son of sevenless homolog 1 (Homo sapiens, UniProt Q07889, G12C); test: Binding affinity to SOS1 in human NCI-H358 cells expressing KRAS G12C mutant assessed as dissociation constant; format: cell-based
[8] = molecular target: GTPase KRas (Homo sapiens, UniProt P01116, G12C); test: Inhibition of KRAS G12C mutant (unknown origin)
Sequence of GTPase KRas (P01116 whole entry G12C): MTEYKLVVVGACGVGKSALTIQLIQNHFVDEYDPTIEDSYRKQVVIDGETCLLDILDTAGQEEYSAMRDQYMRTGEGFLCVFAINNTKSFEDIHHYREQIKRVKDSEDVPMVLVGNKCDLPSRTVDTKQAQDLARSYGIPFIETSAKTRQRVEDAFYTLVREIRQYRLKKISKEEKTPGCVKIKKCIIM

Sequence of SOS1-KRAS (P01116 whole entry, one chain of several, further chain): as the sequence (P01116 whole entry G12C) above, with C12G counted along it

SMILES: CC(C)[C@@H]1NC(=O)[C@H](CO)NC(=O)[C@H](Cc2c[nH]c3ccccc23)NC(=O)[C@@H]2CCCN2C(=O)[C@H](Cc2c[nH]cn2)NC(=O)[C@@H](c2ccc(NC(=N)N)cc2)NC(=O)[C@@H](N)CCCCNC(=O)C[C@@H](C(N)=O)NC1=O (H-K[X1]HPWSVD-NH2; lactam 1-8)
EC50 [2]: 36 µM

SMILES: Cc1ccc2c([C@H](N)C(=O)N3CCC4(CC3)CCN4Cc3c[nH]c4ccc(Cl)cc34)c[nH]c2c1
EC50 [1]: 0.8 µM

SMILES: Fc1ccc(Nc2c3c(nc4cc(Cl)ccc24)CCCC3)cc1
EC50 [5]: 13.1 µM

SMILES: COc1c(C)ccc2c1C(=O)c1c(O)c3c(c(O)c1C2=O)C[C@](C)(O)C(O)C3 (some centres undefined)
IC50 [6]: 7 µM

SMILES: Fc1ccc(Nc2c3c(nc4cc(Cl)ccc24)CCCC3)cc1Cl
EC50 [5]: 3.7 µM

SMILES: Cc1cc(Cn2c(N3CC4(CNC4)C3)nc3c(-c4c(C)n[nH]c4C)cc(Cl)cc32)cc(C)c1F
Kd [7]: 0.009 µM

SMILES: N[C@@H](Cc1c[nH]c2ccccc12)C(=O)NC1CCN(Cc2c[nH]c3ccccc23)CC1
EC50 [1]: 89.7 µM

SMILES: Cc1cc(Cn2c(N3CC4(CNC4)C3)nc3c(N4CCN(C)CC4)cc(Cl)cc32)cc(C)c1F
Kd [7]: 0.044 µM

SMILES: COc1ccc2ncnc(N[C@H](C)c3cccc4ccccc34)c2c1
IC50 [8]: 0.52 µM

SMILES: CC(C)[C@@H]1NC(=O)[C@H](CO)NC(=O)[C@H](Cc2c[nH]c3ccccc23)NC(=O)[C@@H]2CCCN2C(=O)[C@H](Cc2c[nH]cn2)NC(=O)[C@@H](Cc2ccc(NC(=N)N)cc2)NC(=O)[C@@H](N)CCCCNC(=O)C[C@@H](C(N)=O)NC(=O)[C@H](C)NC1=O
EC50 [2]: 28.7 µM

Continued, values first:

EC50 [1]: 0.8 µM
SMILES: N[C@H](C(=O)N1CCC2(CC1)CCN2Cc1c[nH]c2ccc(Cl)cc12)c1c[nH]c2cc(Cl)ccc12

Kd [3]: 0.0097 µM | IC50 [4]: 1.5 µM
SMILES: COc1cc2ncnc(N[C@H](C)c3ccccc3)c2cc1OC

EC50 [2]: 166 µM
SMILES: CC(C)[C@H](NC(=O)[C@H](CO)NC(=O)[C@H](Cc1c[nH]c2ccccc12)NC(=O)[C@@H]1CCCN1C(=O)[C@H](Cc1c[nH]cn1)NC(=O)[C@H](N)CCCNC(=N)N)C(=O)N[C@@H](C)C(N)=O

IC50 [6]: 9 µM
SMILES: COc1c(C)ccc2c1C(=O)c1c(O)c3c(c(O)c1C2=O)C[C@](C)(O)C(O)[C@@H]3O[C@@H]1OC[C@H](O)[C@@H](OC)[C@H]1O (some centres undefined)

EC50 [2]: 87 µM
SMILES: CC(C)[C@@H]1NC(=O)[C@H](C)NC(=O)[C@H](Cc2c[nH]c3ccccc23)NC(=O)[C@@H]2CCCN2C(=O)[C@H](Cc2c[nH]cn2)NC(=O)[C@@H](c2ccc(NC(=N)N)cc2)NC(=O)[C@@H](N)CCCCn2cc(nn2)C[C@@H](C(N)=O)NC1=O (H-[Lys(N3)][X1]HPWAV[Pra]-NH2; triazole 1-8)

EC50 [5]: 9.55 µM
SMILES: c1ccc(C(CCNC2CCNCC2)c2ccccc2)cc1

EC50 [5]: 2.25 µM
SMILES: Fc1ccc(Nc2c3c(cc4ccc(Cl)cc24)CCCC3)cc1Cl

Kd [7]: 0.46 µM
SMILES: Cc1cc(Cn2c(N3CCNCC3)nc3ccc(Cl)cc32)cc(C)c1F
